Assay results: DBAASP
Values after ≈ are worked out from the molar mass of the structure shown. Values joined by “and” are separate entries in the source; they are usually repeats but may differ in a detail not shown here. Identical values can stand only once. One block for each compound: values may come before it.

Columns and labels:
Test in all cases: ≥ marks a high value that may be exact or a test limit, other limits are often not marked, values filed in µg/mL are converted to µM
[1] = tested on: Salmonella enterica subsp. enterica serovar Typhimurium ATCC 14028
Listeria monocytogenes = tested on: Listeria monocytogenes
[2] = tested on: Pseudomonas aeruginosa RP73
[3] = tested on: Enterococcus faecalis ATCC 29212
[4] = tested on: Staphylococcus aureus WKZ2
[5] = tested on: Staphylococcus aureus ATCC 6538P
[6] = tested on: Escherichia coli ATCC 25922
[7] = tested on: Escherichia coli ATCC 35218
[8] = tested on: Pseudomonas aeruginosa PAO1
[9] = tested on: Salmonella enterica subsp. enterica serovar Enteritidis 706 RIVM
[10] = tested on: Escherichia coli MG1655 ΔrecA
[11] = tested on: Klebsiella aerogenes ATCC 13048
Escherichia coli MG1655 = tested on: Escherichia coli MG1655
[12] = tested on: Candida albicans ATCC 90028
[13] = tested on: Staphylococcus aureus ATCC 6538
[14] = tested on: Bacillus subtilis CCT 2576
[15] = tested on: Staphylococcus aureus ATCC 43300
[16] = tested on: Bacillus megaterium ATCC 13632
[17] = tested on: Streptococcus pneumoniae ATCC 700677
[18] = tested on: Pseudomonas aeruginosa ATCC 27853
[19] = tested on: Klebsiella pneumoniae ATCC 700603
[20] = tested on: Staphylococcus aureus VRSA1
[21] = tested on: Candida tropicalis ATCC 750
[22] = tested on: Staphylococcus aureus ATCC 29213
[23] = tested on: Pseudomonas aeruginosa ATCC 15442
[24] = tested on: Enterococcus faecium ATCC 35667
[25] = tested on: Acinetobacter baumannii ATCC 19606
[26] = tested on: Cryptococcus neoformans ATCC 208821
[27] = tested on: Bacillus subtilis ATCC 6051
[28] = tested on: Klebsiella pneumoniae ATCC BAA-1705
Escherichia coli W3110 = tested on: Escherichia coli W3110
[29] = tested on: Salmonella typhimurium CMCC 50115
[30] = tested on: Salmonella enterica ATCC H9812
[31] = tested on: Bacillus subtilis ATCC 63501
[32] = tested on: Shigella flexneri ATCC 12022
[33] = tested on: Klebsiella pneumoniae CMCC 46117
Escherichia coli K88 = tested on: Escherichia coli K88
[34] = tested on: Escherichia coli ATCC 25922 ΔsbmA
[35] = tested on: Shigella dysenteriae CMCC 51252
[36] = tested on: Shigella flexneri CMCC 51572
[37] = tested on: Klebsiella pneumoniae ATCC 10031
[38] = tested on: Staphylococcus aureus ATCC 25923
Candida krusei ATCC 6258 = tested on: Candida krusei ATCC 6258
[39] = tested on: Pseudomonas aeruginosa ATCC 27312
[40] = tested on: Serratia marcescens ATCC 14756
[41] = tested on: Escherichia coli ATCC 12795
[42] = tested on: Mannheimia haemolytica 82-25

SMILES: CC(C)C[C@H](NC(=O)[C@@H](NC(=O)[C@@H]1CCCN1C(=O)[C@H](C)NC(=O)[C@H](CCCCN)NC(=O)[C@H](Cc1c[nH]c2ccccc12)NC(=O)[C@H](CCC(N)=O)NC(=O)[C@@H]1CCCN1C(=O)[C@H](Cc1ccccc1)NC(=O)[C@H](Cc1ccc(O)cc1)NC(=O)[C@H](CCCCN)NC(=O)[C@H](CCCN=C(N)N)NC(=O)[C@H](C)NC(=O)[C@@H]1CCCN1C(=O)[C@H](CC(N)=O)NC(=O)[C@H](CC(C)C)NC(=O)[C@H](CC(N)=O)NC(=O)[C@H](Cc1cnc[nH]1)NC(=O)[C@H](CCCCN)NC(=O)[C@H](CCCCN)NC(=O)[C@H](CC(C)C)NC(=O)[C@H](Cc1ccccc1)NC(=O)[C@@H]1CCCN1)[C@@H](C)O)C(=O)O [PFLKKHNLNPARKYFPQWKAPTL]
- MIC [1]: > 50 µM
- MIC (Listeria monocytogenes): ≥ 50 µM
- MIC [2]: 12.5 µM (≈ 34.9 µg/mL)
- MIC [3]: > 50 µM
- MIC [4]: ≥ 50 µM
- MIC [5]: 3.12 µM (≈ 8.72 µg/mL)
- MIC [6]: > 50 µM
- MIC [7]: ≥ 50 µM
- MIC [8]: 25 µM (≈ 69.9 µg/mL)
- MIC [9]: ≥ 50 µM

SMILES: CC[C@H](C)[C@H](N)C(=O)N[C@@H](CC(N)=O)C(=O)N[C@@H](Cc1c[nH]c2ccccc12)C(=O)N[C@@H](CC(C)C)C(=O)N[C@@H](CCCCN)C(=O)N[C@@H](CC(C)C)C(=O)NCC(=O)N[C@@H](CCCCN)C(=O)N[C@@H](C)C(=O)N[C@H](C(=O)N[C@H](C(=O)N[C@@H](CC(=O)O)C(=O)N[C@@H](C)C(=O)N[C@@H](CC(C)C)C(N)=O)[C@@H](C)CC)[C@@H](C)CC [INWLKLGKAIIDAL]
- MIC [12]: 7.22 µM (≈ 11.3 µg/mL)
- MIC [13]: 122 µM (≈ 191 µg/mL)
- MIC [14]: ≥ 151 µM
- MIC [15]: 5.1 µM (≈ 8 µg/mL)
- MIC [16]: 2.55 µM (≈ 4 µg/mL)
- MIC [17]: 5.1 µM (≈ 8 µg/mL)
- MIC [18]: 115 µM (≈ 181 µg/mL)
- MIC [19]: 81.6 µM (≈ 128 µg/mL)
- MIC [20]: 3.61 µM (≈ 5.65 µg/mL)
- MIC [21]: 1.28 µM (≈ 2 µg/mL)
- MIC [22]: 5.1 µM (≈ 8 µg/mL)
- MIC [23]: ≥ 164 µM
- MIC [24]: 3.61 µM (≈ 5.65 µg/mL)
- MIC [25]: 5.1 µM (≈ 8 µg/mL)
- MIC [26]: 2.55 µM (≈ 4 µg/mL)
- MIC [27]: 2.55 µM (≈ 4 µg/mL)

SMILES: CC[C@H](C)[C@H](N)C(=O)N[C@@H](Cc1c[nH]c2ccccc12)C(=O)N[C@@H](Cc1c[nH]c2ccccc12)C(=O)N[C@@H](C)C(=O)N[C@@H](CCCCN)C(=O)N[C@@H](Cc1c[nH]c2ccccc12)C(=O)NCC(=O)N[C@@H](CC(C)C)C(=O)N[C@@H](CCCCN)C(=O)N[C@@H](CC(C)C)C(=O)N[C@@H](CC(C)C)C(=O)N[C@@H](CC(=O)O)C(=O)N[C@@H](Cc1ccc(O)cc1)C(=O)N[C@@H](CCCN=C(N)N)C(=O)N[C@@H](CCCN=C(N)N)C(=O)N[C@H](C(=O)N[C@@H](Cc1c[nH]c2ccccc12)C(=O)O)[C@@H](C)CC [IWWAKWGLKLLDYRRIW]
- MIC [28]: ≥ 128 µM
- MIC (Escherichia coli W3110): 8 µM (≈ 18.4 µg/mL)

SMILES: N[C@@H](CC(=O)O)C(=O)N[C@@H](CC(=O)O)C(=O)N[C@@H](CC(=O)O)C(=O)N[C@@H](CC(=O)O)C(=O)N[C@@H](CC(=O)O)C(=O)N[C@@H](CC(=O)O)C(=O)N[C@@H](CC(=O)O)C(=O)O [DDDDDDD]
- MIC (Candida krusei ATCC 6258): ≥ 3190 µM
- MIC [39]: ≥ 1500 µM
- MIC [3]: 1160 µM (≈ 955 µg/mL)
- MIC [40]: ≥ 1500 µM
- MIC [41]: ≥ 570 µM
- MIC [42]: ≥ 80 µM
- MIC [22]: 940 µM (≈ 774 µg/mL)
- MIC [37]: ≥ 800 µM

Continued, values first:

- MIC [10]: 16 µM (≈ 38.4 µg/mL)
- MIC [11]: ≥ 64 µM
- MIC (Escherichia coli MG1655): ≥ 32 µM
SMILES: CC(C)C[C@H](NC(=O)CNC(=O)[C@H](C)NC(=O)[C@H](CCCN=C(N)N)NC(=O)[C@H](Cc1cnc[nH]1)NC(=O)[C@@H](NC(=O)[C@@H](N)CCCN=C(N)N)[C@@H](C)O)C(=O)N[C@@H](CCC(N)=O)C(=O)N[C@@H](Cc1ccccc1)C(=O)N1CCC[C@H]1C(=O)N[C@H](C(=O)NCC(=O)N[C@@H](CCCN=C(N)N)C(=O)N[C@H](C(=O)N[C@@H](Cc1cnc[nH]1)C(=O)N[C@@H](CCCN=C(N)N)C(=O)N[C@@H](CC(C)C)C(=O)N[C@@H](CC(C)C)C(=O)N[C@@H](CCCN=C(N)N)C(=O)N[C@@H](CCCCN)C(N)=O)C(C)C)C(C)C [RTHRAGLQFPVGRVHRLLRK]

- MIC [29]: 1 µM and 2 µM
- MIC [30]: 2 µM (≈ 4.45 µg/mL)
- MIC [3]: > 512 µM
- MIC [31]: ≥ 512 µM
- MIC [32]: 1 µM (≈ 2.23 µg/mL)
- MIC [33]: ≥ 256 µM
- MIC (Escherichia coli K88): 2 µM (≈ 4.45 µg/mL)
- MIC [34]: ≥ 256 µM
- MIC [35]: 4 µM and 2 µM
- MIC [36]: 2 µM (≈ 4.45 µg/mL)
- MIC [37]: ≥ 256 µM
- MIC [38]: > 512 µM
SMILES: CC[C@H](C)[C@H](NC(=O)[C@@H]1CCCN1C(=O)[C@H](CCCN=C(N)N)NC(=O)[C@@H]1CCCN1C(=O)[C@H](CCCN=C(N)N)NC(=O)[C@@H]1CCCN1C(=O)[C@H](CC(C)C)NC(=O)[C@H](Cc1ccc(O)cc1)NC(=O)[C@@H]1CCCN1C(=O)[C@@H]1CCCN1C(=O)[C@H](CCCCN)NC(=O)[C@H](CC(=O)O)NC(=O)[C@@H](N)C(C)C)C(=O)N[C@@H](CCCN=C(N)N)C(=O)N[C@@H](CCCN=C(N)N)C(=O)N1CCC[C@H]1C(=O)NCC(=O)NCC(=O)N[C@@H](CCCN=C(N)N)C(N)=O [VDKPPYLPRPRPIRRPGGR]
